Consider six compounds from patent US20100280052A1, “USE OF ANTIVIRALS TO TREAT CMV-RELATED CONDITIONS” (priority 2007, published 2010).

Data set [1] concerns CMV. As to conditions: ganciclovir and valganciclovir compared with acyclovir and valacyclovir; cited from earlier work.
For data set [2] the following is noted: cited from earlier work; for side effects: at common doses.
Data set [3] concerns CMV-specific CD4+ T cells. Kind of data set: CD4+ T cells producing interferon-gamma after CMV lysate stimulation, single individual (Example 2, FIG. 17). As to conditions: before, 3 and 14 months after treatment with acyclovir 40 mg b.d. The class given is in vivo, human. The text has this: Referring to FIG. 17, the blood was stimulated with CMV lysate, and the percentage of CD4+ T cells which produce interferon-gamma in response to antigen measured. It can be seen that this percentage was reduced on treatment.

The subject of data set [4] is CMV-specific T cells. Kind of data set: Interferon-gamma Elispot analysis of CMV-specific T cells, single individual (Example 2, FIG. 18). It counts as in vivo, human. As to conditions: before, 3 and 14 months after treatment with acyclovir 40 mg b.d., CMV lysate or pp65 or IE-1 peptide pools. The text has this: Finally, referring to FIG. 18, the blood was stimulated with CMV lysate, or peptide pools from CMV pp65 or IE-1, and the number of CMV-specific T cells was detected using interferon-gamma Elispot analysis. It can be seen that the magnitude of this response was reduced by treatment.

Data set [5] concerns CMV-specific T cells. Kind of data set: CMV-specific T cells detected by Interferon-gamma expression in blood of patients taking ACV or VCV (Example 1, FIGS. 9, 10). It counts as in vivo, human.
Data set [6] has as its system CD4+ T cells. Kind of data set: CD27, CD28, CD57 antibody staining of peripheral blood CD4+ T cells (Example 1, FIGS. 12-15). The class given is in vivo, human. As to conditions: CMV-seropositive patients taking ACV or VCV vs healthy donors; for percentage of CD4+ T cells which have lost expression of CD27: FIGS. 12, 13; for percentage of CD4+ T cells which have lost expression of CD28: FIGS. 12, 14; for percentage of CD4+ T cells which have gained expression of CD57: FIGS. 12, 15. The procedure: (§1) The CMV-specific immune response was measured in a cohort of CMV seropositive or seronegative donors who are taking acyclovir or valaciclovir. This was compared to an age-matched control cohort. […] Comprehensive analysis of (1) the total T cell profile of these donors, and (2) their CMV-specific response, was performed. The results were compared to an age-matched control group of CMV seropositive or seronegative donors.
In FIG. 12, CD4+ T cells in peripheral blood of 35 CMV-seropositive or seronegative healthy donors were stained with antibodies to CD27, CD28 or CD57. These are shown on the left panel. A similar analysis was performed on patients taking acyclovir or valacyclovir (right hand panel). It can be seen that the percentage of CD4 + T cells which have lost expression of CD27 or CD28, or have gained expression of CD57, is lower in CMV-seropositive patients who are taking ACV or VCV in comparison to healthy donors.
Referring to FIG. 13, CD4+ T cells in peripheral blood of 25 healthy donors or patients taking ACV or VCV were stained with antibodies to CD27.
Referring to FIG. 14, CD4+ T cells in peripheral blood of 25 healthy donors or patients taking ACV or VCV were stained with antibodies to CD28.
Referring to FIG. 15, CD4+ T cells in peripheral blood of 25 healthy donors or patients taking ACV or VCV were stained with antibodies to CD57.

Data set [7] has as its system CMV. As to conditions: cited from earlier work.
The test system of data set [8] is CD8+ T cells. Kind of data set: CD57 antibody staining of peripheral blood CD8+ T cells (Example 1, FIG. 16). It counts as in vivo, human. As to conditions: CMV seropositive donors, patients taking drug vs healthy controls. How it is done: as §1
For data set [9], the system named is CMV-specific T cells. The data set is described as follows: Elispot analysis of antigen-specific T cells after CMV lysate stimulation (Example 1, FIG. 11). It counts as in vivo, human. As to conditions: patients taking ACV or VCV vs healthy CMV seropositive donors. The procedure:
as §1
A reduced Elispot response to CMV is seen in patients taking ACV or VCV.

For data set [10] the following is noted: prodrug compared with penciclovir; cited from earlier work.
Setting [11] is: FIG. 9, CMV seropositive patients on ACV 400 mg b.d. or VCV 500 mg o.d. or b.d. vs healthy control CMV seropositive donors, CMV lysate or pp65 and IE-1 peptide pools.
Where [12] appears, read: FIG. 10, time-dependent effect, ACV 400 mg b.d. or VCV 500 mg o.d. or b.d., CMV lysate.

Turning to `CC(C)[C@H](N)C(=O)OCC(CO)OCn1cnc2c(=O)nc(N)[nH]c21` (stereo partly shown) [valganciclovir], the “activity against CMV” value in data set [1] is given as “markedly improved activity”.

Take `Nc1nc(O)c2ncn(COC(CO)CO)c2n1` [ganciclovir]: the “carcinogenicity, teratogenicity, mutagenicity” value in data set [2] (human) is “potential human carcinogen, teratogen, and mutagen”. The “activity against CMV” value in data set [1] is recorded as “markedly improved activity”.

Take `Nc1nc2c(ncn2COCCO)c(=O)[nH]1` [acyclovir, 9-(2-hydroxyethoxymethyl)guanine]: in data set [3], the “percentage of CD4+ T cells which produce interferon-gamma in response to antigen” value is “reduced”. For the same compound, the “number of CMV-specific T cells (magnitude of interferon-gamma Elispot response)” value in [4] is given as “reduced”. In addition, the side effects result in data set [2] is “nausea, vomiting, diarrhoea and/or headaches”. Also, in [5] (setting [11]), the “number of CMV-specific T cells (Interferon-gamma expression)” value (“number … (Interferon-gamma expression)” below) is listed as “reduced”. The “number … (Interferon-gamma expression)” value in data set [5] (setting [12]) is “reduced”. In addition, in [6], the “percentage of CD4+ T cells which have lost expression of CD27” value (from here on “percentage … of CD27”) was “reduced”, the “percentage of CD4+ T cells which have lost expression of CD28” value (shortened to “percentage … of CD28”) is listed as “reduced” and the “percentage of CD4+ T cells which have gained expression of CD57” value (“percentage … of CD57” below) is reported as “reduced”. For the same compound, in data set [6] (listed as ACV), the “percentage … of CD27” value was “lower”, the “percentage … of CD28” value was “lower” and the “percentage … of CD57” value is recorded as “lower”. Further, in data set [7], the “activity against CMV replication in vitro” value is given as “minimal activity”. Moreover, the “percentage of CD8+ T cells which express CD57” value in [8] is “reduced”. Moreover, the “Elispot response to CMV” value in data set [9] was “reduced”.

As to `CC(C)[C@H](N)C(=O)OCCOCn1cnc2c(=O)[nH]c(N)nc21` [valacyclovir], the side effects result in data set [2] is “nausea, vomiting, diarrhoea and/or headaches”. Further, the “number … (Interferon-gamma expression)” value in data set [5] (setting [11]) and in data set [5] (setting [12]) was “reduced” each time. Further, the “percentage … of CD27” value in [6] is on record as “reduced”; in [6] (listed as VCV), “lower”. The entries for the “percentage … of CD28” value in data set [6] and in [6] (listed as VCV) were “reduced” and “lower”, respectively. Further, the results for the “percentage … of CD57” value in data set [6] and in [6] (listed as VCV) were “reduced” and “lower”, respectively. Also, the “percentage of CD8+ T cells which express CD57” value in [8] is given as “reduced”. Also, the “Elispot response to CMV” value in data set [9] is on record as “reduced”.

Take `Nc1nc2c(ncn2CCC(CO)CO)c(=O)[nH]1` [penciclovir]: the “side effects compared with acyclovir” value in data set [2] (treatment of herpesvirus infections) was “fewer side effects”. In addition, the “activity against CMV” value in data set [1] is given as “minimal activity”.

Regarding `CC(=O)OCC(CCn1cnc2cnc(N)nc21)COC(C)=O` [Famciclovir], the bioavailability entry in data set [10] is reported as “improved bioavailability”.
